# Test results published in patent publication US9808461B2, “Protection of renal tissues from ischemia through inhibition of the proliferative kinases CDK4 and CDK6” (The University of North Carolina at Chapel Hill, priority 2010, dated 2017).
# Entries after “also recorded” stand apart in the source; their conditions may differ.
# What was measured:
# [1] = test system: renal epithelial cells; assay: BrdU incorporation into renal epithelial cells after ischemia reperfusion injury; assay type: in vivo, mice
# Description: FIG. 3A is a schematic diagram showing a dosing schedule for studies of 5-bromo-2-deoxyuridine (BrdU) incorporation into epithelial cells following ischemic reperfusion injury after a single dosing of a CDK4/6 inhibitor. Mice were treated with 6-acetyl-8-cyclopentyl-5-methyl-2-(5-piperazin-1-yl-pyridin-2-ylamino)-8H-pyrido-[2,3-d]pyrimidin-7-one (PD0332991; 150 mg/kg) or vehicle (sodium lactate buffer) by oral gavage one hour before ischemic reperfusion injury. BrdU (100 mg/kg) was administered via i.p. injection 21 hours after injury. Mice were sacrificed 3 hours after the BrdU injection, and BrdU incorporation into the renal epithelial cells was quantified. […] Three hours following the second injection of BrdU, the mice were sacrificed and BrdU incorporation into the renal epithelial cells was quantified. […] Kidney cell proliferation following ischemia reperfusion injury (IRI) was monitored (based on BrdU incorporation in renal epithelial cells) following a one time, pre-IRI PD0332991 or vehicle (sodium lactate buffer) dosing as shown in FIG. 3A and following a two time (once pre-IRI and once post-IRI) PD0332991 or vehicle dosing as shown in FIG. 3B. […] BrdU positive (BrdU(+)) cells were quantified visually by counting the number of BrdU(+) cells in a field of kidney epithelial cells under magnification. […]
# [2] = Serum creatinine after bilateral ischemia reperfusion injury; assay type: in vivo, mice; conditions: 150 mg/kg oral gavage 1 hour prior to bilateral IRI; N=9; vehicle group 2.27
# Description: PD0332991 was dissolved in 50 mM sodium lactate buffer (pH 4.0) to a final concentration of 15 mg/mL. Mice were treated with a 150 mg/kg dose of PD0332991, or vehicle, 1 hour prior to ischemia reperfusion surgery by oral gavage. 8 week old male mice were anesthetized with pentobarbital sodium (60 mg/kg body weight, intraperitoneally) prior to surgery. Body temperatures were controlled at 36.5° C.-37.5° C. throughout the procedure. Bilateral flank incisions into the peritoneum allowed access to both kidneys. Kidneys were exposed and ischemia was induced by simultaneously clamping the renal pedicle of both kidneys with nontraumatic microaneurysm clamps (Roboz, Rockville, Md.). Clamped kidneys were placed back into the peritoneal cavity for 28 minutes, and clamps were then removed resulting in reperfusion injury. The flank incisions were closed with wound clips and the mice were allowed to recover in their home cages. […] Serum creatinine was measured by the Beckman Creatinine Analyzer 2, which utilizes a 10 mM picric acid solution mixed with a buffer containing 10 mM sodium borate, 240 mM sodium hydroxide, and 10 mM sodium dodecyl sulfate (SDS). Serum creatinine is measured against a creatinine standard and recorded as milligrams per deciliter.
# [3] = test system: primary human renal proximal tubule epithelial cells; assay: Cell cycle analysis (propidium iodide staining, flow cytometry); assay type: cell-based; conditions: 0, 10 nM, 30 nM, 100 nM, 300 nM or 1 μM for 16 hours
# Description: Representative histograms of cell cycle analysis of primary human renal proximal tubule epithelial cells treated with varying concentrations (0 nM, 10 nM, 30 nM, 100 nM, 300 nM, or 1 μM) of 6-acetyl-8-cyclopentyl-5-methyl-2-(5-piperazin-1-yl-pyridin-2-ylamino)-8H-pyrido-[2,3-d]pyrimidin-7-one (PD0332991) for 16 hours. Cells were harvested, fixed, stained, and analyzed by flow cytometry. Data was fitted using Mod-Fit™ software from Verity (Verity Software House, Topsham, Me., United States of America). […] Cell cycle analysis of primary human renal proximal tubule epithelial cells treated with varying concentrations (0 nM, 10 nM, 30 nM, 100 nM, 300 nM, or 1 μM) of 6-acetyl-8-cyclopentyl-5-methyl-2-(5-piperazin-1-yl-pyridin-2-ylamino)-8H-pyrido-[2,3-d]pyrimidin-7-one (PD0332991) for 16 hours. Cells were harvested, fixed, stained, and analyzed by flow cytometry. Data was fitted using Mod-Fit™ software from Verity (Verity Software House, Topsham, Me., United States of America). […] Samples were processed and the DNA was stained with propidium iodide (PI) solution and analyzed by flow cytometry. FCS files from flow cytometer were further analyzed using cell cycle analysis software ModFit™ from Verity (Verity Software House, Topsham, Me., United States of America), where cell cycle fractions were calculated as a percentage of the whole population.
# [4] = test system: primary human renal proximal tubule epithelial cells; assay: Cell proliferation, CellTiter-Glo; assay type: cell-based; conditions: 10 nM to 3 μM, 72 hours post treatment
# Description: Cells were treated with varying concentrations (0 nM, 10 nM, 30 nM, 100 nM, 300 nM, or 1 μM) of 6-acetyl-8-cyclopentyl-5-methyl-2-(5-piperazin-1-yl-pyridin-2-ylamino)-8H-pyrido-[2,3-d]pyrimidin-7-one (PD0332991) for 72 hours. Following incubation, cell proliferation was quantified using CellTiter-Glo® (Promega, Madison, Wis., United States of America). Data represent the mean of four replicates (relative light units, RLU)+/−standard deviation. Inhibition of CDK4/6 blocks the proliferation of normal human primary renal proximal tubule epithelial cells. These cells were seeded at an appropriate density in 96 well plates and incubated for 24 hours at 37° C. in a humidified incubator at 5% CO2. Cells were then exposed to a potent and selective CDK4/6 inhibitor, in this case PD0332991, across a broad dose range 24 hours later. The dose range explored is 0, 10 nM, 30 nM, 100 nM, 300 nM, 1 μM or 3 μM PD0332991. Seventy-two hours post exposure, the CDK4/6 inhibited cells were treated with CellTiter-Glo® (Promega, Madison, Wis., United States of America) using manufacturer's specifications. The plate was read in luminometer at 1 second/well. Results were placed in Microsoft Excel and analyzed.
structure (smiles),measurement,setting,value
"CC(=O)c1c(C)c2cnc(Nc3ccc(N4CCNCC4)cn3)nc2n(C2CCCC2)c1=O [PD0332991, 6-acetyl-8-cyclopentyl-5-methyl-2-(5-piperazin-1-yl-pyridin-2-ylamino)-8H-pyrido-[2,3-d]-pyrimidin-7-one]","BrdU(+) renal epithelial cells 24 hours after injury, versus vehicle","[1]; 150 mg/kg oral gavage one time, 1 hour before IRI (FIG. 3A schedule)",significantly less BrdU(+) cells; also recorded: prevents epithelial cells from entering S-phase
same,"BrdU incorporation in renal epithelial cells 48 hours after injury, versus vehicle","[1]; 150 mg/kg oral gavage two doses, once pre-IRI and once post-IRI (FIG. 3B schedule)",less BrdU incorporation; also recorded: prevents epithelial cells from entering S-phase
same,average serum creatinine 24 hours after surgery,[2],1.74 mg/dL
same,G1 cell cycle arrest,[3],induces a G1 arrest; also recorded: “clean” G1-arrest without evidence of cytotoxicity
same,"cell cycle fractions (G0/G1, G2/M, S-phase)",[3],dose dependent increase in the G0/G1 fraction of the cell cycle was observed with a consummate decrease in both G2/M and S-phase fractions
same,cell proliferation (relative light units) compared to DMSO control,[4],clear dose dependent inhibition of cell proliferation; also recorded: blocks proliferation
